US12070471B2, “Remote loading of sparingly water-soluble drugs into lipid vesicles” (CELATOR PHARMACEUTICALS, INC., priority 2014, dated 2024)

Columns and labels:
[1] = Remote loading of taxane derivative precipitates into liposomes; format: physicochemical
Description: Liposomes were prepared using the extrusion and purification method described in Example 1. The lipid composition was POPC/cholesterol (3/0.5, mol/mol). The trapping agent consisted of zinc acetate or magnesium acetate at 120 mM. A solution of either unmodify carbazitaxel or 2′succinylcarbazitaxel in DMSO at 20 mg/mL was added to the liposome solution slowly over 30 seconds while vortexing to produce a drug precipitate in the liposome solution. The target drug to phospholipid ratio was 100 g/mole lipid for unmodified carbazitaxel and 100, 150 or 200 g for succinylcarbazitaxel/mol phospholipid. The solutions are heated for 30 min at 45° C. and then cooled on ice. A sample was removed to determine the input drug to lipid ratio and the remaining solution was spun in a centrifuge at 12,000 RPM for 5 minutes to pellet any unloaded drug. The supernatant was further purified from unloaded drug using a Sephadex G25 size exclusion column eluted with 5 mM HEPES, 145 mM NaCl at pH 6.5. The purified liposomes were analyzed for drug and lipid content by HPLC as described in Example 16.
To encapsulate the 2′ morpholine-4-ylethyl amide of succinylcabazitaxel, liposomes were prepared with a lipid composition of HSPC/DSPG/Chol/PEG-DSPE in the ratio 2/0.6/2/0.3 containing 1.0 M (SO4) TEA dextran sulfate. The liposomes were separated form the non-entrapped TEA dextran sulfate by anion exchange and then by dialysis against 5 mM Hepes buffered 10% (wt/wt) sucrose, pH 6.5. 2′ morpholine-4-ylethyl amide of succinylcabazitaxel was dissolved in DMSO at 10 mg/mL.
In a typical preparation, the DMSO 2′ morpholine-4-ylethyl amide of succinylcabazitaxel solution was added dropwise to the liposomes at room temperature while the liposomes suspension was rapidly mixed on a vortex mixer. […] The purified liposomes were analyzed for drug and lipid content by HPLC as described in Example 16. […]

[2] = Remote loading of amphotericin B precipitate into TEA dextran sulfate liposomes; format: physicochemical
Description: Liposomes were prepared with a lipid composition of HSPC/DSPG/Chol/PEG-DSPE in the ratio 2/0.6/2/0.3 containing 1.0 M (SO4) TEA dextran sulfate. The liposomes were separated form the non-entrapped TEA dextran sulfate by anion exchange and then by dialysis against 5 mM Hepes buffered 10% (wt/wt) sucrose pH 6.5. The liposomes were exchanged into 0.01 N HCL, 10% sucrose pH 2.0 before drug loading. Amphotericin B was dissolved in DMSO at 10 mg/ml.
In a typical preparation, the DMSO amphotericin B solution was added dropwise to the liposomes at room temperature while the liposomes suspension was rapidly mixed on a vortex mixer. The concentration of the liposomal lipid was 5 umol (phospholipid)/mL and 0.1 mL of the amphotericin B solution was added per mL of liposomes so that the final amphotericin B concentration was about 1.0 mg/ml AmB and the final DMSO concentration was about 10% (V/V). By adjusting the amount of liposomes in the preparation various AmB/PL ratios were tested, e.g., 200, 400, 800 g/mol.
The samples were heated at 65° C. for 15 min. Then cooled on ice for 30 minutes. The preparation was then passed through a PD10 (Sephadex G25) gel filtration column to remove any precipitated amphotericin B that was not incorporated into the liposome. […] The diameter of the drug loaded liposomes was not changed at the 200 and 400 g drug/mole lipid input ratio and were slighted larger circa 10% in the 800 g drug lipid ratio. The purified liposomes were analyzed for drug and lipid content by the HPLC method as described in Example 1.

[3] = elimination in the blood stream, unencapsulated drug; cited from earlier work
[4] = Carfilzomib solubility as a function of DMSO content (optical density at 600 nm); format: physicochemical; settings: 0.2 mg/mL
Description: Carfilzomib was added from a stock 10 mg/mL solution in DMSO to 1 mL of a citric acid/DMSO mixture so that the composition of DMSO was 2%, 25%, 50%, 75% and 100%. The final drug concentration was 0.2 mg/mL. The solutions were prepared and measured for optical density at 600 nm. The optical density at 600 nm is a good measure of how turbid or how much scattering material (such as drug precipitates) are in a solution, generally, the more precipitates the higher the absorbance. From FIG. 8 is apparent that at DMSO concentrations below 50% vol/vol (25° C.) and 25% vol/vol (65° C.) the drug remains in a precipitated form. Only when the concentration of DMSO is increased does it become effectively solubilized at this concentration of 0.2 mg/mL.

[5] = Reverse gradient-directed drug release from liposomes; format: physicochemical
Description: Liposomes were loaded with carfilzomib as described in Example 1 and were purified into deionized water. The sample was divided into two aliquots. To the first aliquot, concentrated Hepes pH 7.4 and NaCl was added so that the final concentration was 5 mM Hepes, 145 mM NaCl (HBS). To the second aliquot, concentrated ammonium sulfate was added so that the final concentration was 250 mM. No obvious physical changes were initially observed. The samples were then heated at 65° C. for 30 min. The samples were transferred to clean eppendorf tubes and centrifuged for 10,000 rpm for 5 min after which the supernatants and precipitates were separated and tested for carfilzomib content by HPLC assay. Released drug precipitated, liposome encapsulated drug remained in the supernatant. The % carfilzomib released was calculated by […]

[6] = Drug precipitate loading followed by light scattering at 600 nm; format: physicochemical
Description: Liposomes containing 250 mM ammonium sulfate as trapping agent and 250 mM sodium sulfate as control liposomes which would not remote load drug. The liposomes were prepared and loaded using the procedure described in Example 1 except a disposable polystyrene cuvette was used as the reaction vessel. The scattering of light at 600 nm was measured with a UV/vis spectrophotometer during the loading process.

[7] = Carfilzomib liposome entrapment by remote loading from precipitate (drug and lipid by HPLC after purification); format: physicochemical
Description: Ammonium sulfate solution was prepared by dissolving ammonium sulfate solid to a final concentration of 250 mM (500 mequivilents of anion/L) no pH adjustment was made to yield a final pH of 5.6. Sodium sulfate solution (250 mM) was prepared by adding 0.35 g sodium sulfate to 10 mL deionized water.
The liposomes were formed by extrusion. Lipids were dissolved in ethanol at a concentration of 500 mM HSPC (591 mg/mL total lipid) at 65° C. and the 9 volumes of the trapping agent solution heated to 65° C. was added to the ethanol/lipid solution also at 65° C. The mixture was vortexed and transferred to a 10 mL thermostatically controlled (65° C.) Lipex Extruder. The liposomes were formed by extruding 10 times through polycarbonate membranes having 0.1 um pores. After extrusion the liposomes were cooled on ice. The transmembrane electrochemical gradient was formed by purification of the liposomes by dialysis in dialysis tubing having a molecular weight cut off of 12,000-14,000. […] The conductivity of the liposome solution was measured and was indistinguishable from the dialysis medium ˜40 μS/cm.
The lipid concentration is determined by measuring the cholesterol by HPLC using an Agilent 1100 HPLC with and Agilent Zorbax 5 um, […], Eclipse XDB-C8 column and a mobile phase of A=0.1% TFA, B=0.1% TFA/MeOH with an isocratic elution of 99% B. The flow rate is 1.0 mL/min, column temperature is 50° C., 10 μL injection and detection by absorbance at 205 nm. […] The liposome size is measured by dynamic light scattering.
Carfilzomib (Selleck Chemicals) was dissolved in DMSO at a concentration of 10 mg/mL. […] The supernatants were purified on a Sephadex G25 column collected and analyzed by HPLC. […] The mobile phase consists of A=0.1% TFA, B=0.1% TFA/MeOH with a gradient elution starting at 50% B and increasing to 83% B in 13 min with 7 min equilibration back to 50% B. The flow rate is 1.0 mL/min, column temperature is 30 C, 10 μl injection and detection by absorbance at 205 nm. […] The lipid concentration is determined by analysis of the cholesterol by HPLC. […]

SMILES: CO[C@H]1C(=O)[C@]2(C)[C@@H](OC)C[C@H]3OC[C@@]3(OC(C)=O)[C@H]2[C@H](OC(=O)c2ccccc2)[C@]2(O)C[C@H](OC(=O)[C@H](OC(=O)CCC(=O)O)[C@@H](NC(=O)OC(C)(C)C)c3ccccc3)C(C)=C1C2(C)C [2′ succinylcabazitaxel, 2′-succinylcarbazitaxel]
- loading efficacy ([1]; POPC/cholesterol liposomes with zinc acetate or magnesium acetate 120 mM, 45 C 30 min): greater than 85%

SMILES: C[C@@H]1[C@H](O)[C@@H](C)/C=C/C=C/C=C/C=C/C=C/C=C/C=C/[C@H](O[C@@H]2O[C@H](C)[C@@H](O)[C@H](N)[C@@H]2O)C[C@@H]2O[C@](O)(C[C@@H](O)C[C@@H](O)[C@H](O)CC[C@@H](O)C[C@@H](O)CC(=O)O[C@H]1C)C[C@H](O)[C@H]2C(=O)O [Amphotericin B]
- amphotericin B concentration to which final liposome preparation was readily concentrated ([2]; 5 mM Hepes, 144 mM NaCl, pH 7.4 buffer): 10 mg/mL
- diameter of the drug loaded liposomes ([2]; 200 and 400 g drug/mole lipid input ratio): not changed
- increase of diameter of the drug loaded liposomes ([2]; 800 g drug lipid ratio): circa 10%
- remote loading efficiency ([2]; input 200 g drug/mole lipid): 96%
- drug content of purified preparation ([2]; input 400 g drug/mole of lipid): 360 g amphotericin B/mole lipid
- encapsulated ([2]; input 400 g drug/mole of lipid): about 90%
- drug content of purified preparation ([2]; input 800 g drug/mole lipid): 560 g amphotericin B/mole lipid
- encapsulated ([2]; input 800 g drug/mole lipid): about 70%

SMILES: CO[C@H]1C(=O)[C@]2(C)[C@@H](OC)C[C@H]3OC[C@@]3(OC(C)=O)[C@H]2[C@H](OC(=O)c2ccccc2)[C@]2(O)C[C@H](OC(=O)[C@H](O)[C@@H](NC(=O)OC(C)(C)C)c3ccccc3)C(C)=C1C2(C)C [cabazitaxel]
- efficiency of loading ([1]; 100 g carbazitaxel/mol phospholipid, calcium acetate and magnesium acetate liposomes (so in the source)): very low
- encapsulation, % of the added drug ([1]; TEA-dextran sulfate liposomes): < 5%

SMILES: CC(C)C[C@H](NC(=O)[C@H](CCc1ccccc1)NC(=O)CN1CCOCC1)C(=O)N[C@@H](Cc1ccccc1)C(=O)N[C@@H](CC(C)C)C(=O)[C@@]1(C)CO1 [carfilzomib]
- t1/2 [3]: < 20 min
- DMSO concentration at which the drug remains in a precipitated form ([4]; 25 C): below 50 % vol/vol
- DMSO concentration at which the drug remains in a precipitated form ([4]; 65 C): < 25 % vol/vol
- drug released with reverse gradient relative to control with no reverse gradient [5]: 6.5 fold
- degradation of released drug (HPLC chromatogram vs starting material) ([5]; after loading and reverse gradient release): no degradation
- time to clarification of the solution during loading ([6]; ammonium sulfate liposomes): ≤ 15 min
- clarification of the precipitate during loading ([6]; sodium sulfate liposomes): do not show any clarification
- loading capacity of remote loaded liposomes relative to sodium sulfate liposomes ([7]; ammonium sulfate vs sodium sulfate liposomes): > 3 fold
- impact of delay between precipitate formation and loading on loading efficiency ([7]; delay up to 12 h): does not have a significant impact
- greatest payload ([7]; triethylammonium sulfate gradient (500 mM), input 650 g drug/mol HSPC, 30 min, 10% DMSO): 440±12.6 g drug/mol HSPC
